These results are taken from ChEMBL document CHEMBL1136106, “Synthesis and biological activities of 1-pyridylisoquinoline and 1-pyridyldihydroisoquinoline derivatives as PDE4 inhibitors” (Bioorg Med Chem Lett, 2003).

A word on the ED50: it is the midpoint of the dose-response relation. A lower ED50 goes with an effect at a small dose. For orientation: IC50 means the concentration needed to halve the response being measured. The term Ki denotes the dissociation constant of the complex between target and ligand, obtained from inhibition or displacement. Low readings indicate a stronger hold on the target, high ones a looser hold on the target.

Each structure is given as a SMILES string.

The species named for one test is Mus musculus. Description: Inhibition of LPS-induced TNF-alpha production in mice after 30 min peroral dose. As to conditions: po, 0.5 h. The class given is functional.
Test [1] concerns the target T1, Phosphodiesterase 4 (Homo sapiens, UniProt P27815+Q08499+Q07343+Q08493). Description: Inhibition of phosphodiesterase 4. The class given is protein assay.
The target of test [2] is T1, Phosphodiesterase 4. Description: Inhibition of rolipram binding to phosphodiesterase 4. The format is protein assay.

In turn, `COc1cc2cc(CO)c(CO)c(-c3ccnc(-n4nc(-c5cccnc5)c5ccccc5c4=O)c3)c2cc1OC.Cl` came in with an ED50 in the test filed under Mus musculus of 1.2 mg/kg. This compound also displayed an IC50 against Phosphodiesterase 4 [1] of 0.7 nM.
`COc1cc2c(cc1OC)C(c1ccnc(-n3ccc4c(OCc5cccnc5)cccc4c3=O)c1)=N[C@H](CO)C2.Cl` displayed an ED50 in the test filed under Mus musculus of 2.4 mg/kg. The compound also yielded an IC50 on Phosphodiesterase 4 [1] of 0.4 nM. This compound displayed a Ki at Phosphodiesterase 4 [2] of 1.5 nM.
The compound `COc1cc2c(cc1OC)C(c1ccnc(-n3nc(Cc4cccnc4)c4ccccc4c3=O)c1)=N[C@H](CO)C2.Cl` gave an IC50 against Phosphodiesterase 4 [1] of 2 nM. Besides, the Ki on Phosphodiesterase 4 [2] is 3.1 nM.
In the test filed under Mus musculus, `COc1ccc(C(=O)Nc2c(Cl)cncc2Cl)cc1OC1CCCC1` gave an ED50 of 0.72 mg/kg.
Take `COc1cc2c(cc1OC)C(c1ccnc(-n3ccc4c(OCCN5CCOCC5)cccc4c3=O)c1)=N[C@H](CO)C2.Cl`: in the test listed under Mus musculus, the ED50 is 0.13 mg/kg. The same compound yielded an IC50 on Phosphodiesterase 4 [1] of 0.5 nM. The same compound registered an inhibition constant (Ki) on Phosphodiesterase 4 [2] of 1.8 nM.
For `COc1cc2c(cc1OC)C(c1ccnc(-n3nc(-c4cncnc4)c4ccccc4c3=O)c1)=N[C@H](CO)C2.Cl`, at Phosphodiesterase 4 [1], the IC50 was found to be 3 nM. The same compound showed a Ki at Phosphodiesterase 4 [2] of 5.4 nM.
On to `COc1cc2cc(CO)nc(-c3ccnc(-n4nc(-c5nccs5)c5ccccc5c4=O)c3)c2cc1OC.Cl`, for which the ED50 in the test listed under Mus musculus turned out to be 0.26 mg/kg. On Phosphodiesterase 4 [1], this compound came in with an IC50 of 0.3 nM. For the same compound, the Ki on Phosphodiesterase 4 [2] amounted to 1.7 nM.
The compound `COc1cc2nc(CO)c(CO)c(-c3ccnc(-n4nc(-c5cccnc5)c5ccccc5c4=O)c3)c2cc1OC.Cl` showed a half-maximal inhibitory concentration (IC50) on Phosphodiesterase 4 [1] of 70 nM. For the same compound, the Ki on Phosphodiesterase 4 [2] turned out to be 120 nM.
For the compound `COc1cc2cc(CO)nc(-c3ccnc(-n4nc(-c5cccs5)c5ccccc5c4=O)c3)c2cc1OC.Cl`, the 50% effect level in the test listed under Mus musculus (ED50) was put at a dose of 1.6 mg/kg. On Phosphodiesterase 4 [1], the IC50 is listed as 0.3 nM. The compound further gave a Ki on Phosphodiesterase 4 [2] of 1.4 nM.
`COc1ccc(C2CNC(=O)C2)cc1OC1CCCC1` (stereo not drawn) [ROLIPRAM] returned an ED50 in the test filed under Mus musculus of 2.6 mg/kg.
For the compound `COc1cc2cc(CO)nc(-c3ccnc(-n4nc(-c5cccnc5)c5ccccc5c4=O)c3)c2cc1OC.Cl`, at Phosphodiesterase 4 [1], the IC50 stood at 0.6 nM. Besides, on Phosphodiesterase 4 [2], the Ki is listed as 1.4 nM.
In the test filed under Mus musculus, `COc1cc2c(cc1OC)C(c1ccnc(-n3nc(-c4cccnc4)c4ccccc4c3=O)c1)=N[C@H](CO)C2.Cl` came in with an ED50 of 0.52 mg/kg. The compound also had an IC50 against Phosphodiesterase 4 [1] of 1 nM. The compound also came in with a Ki on Phosphodiesterase 4 [2] of 6.5 nM.
For `COc1cc2cc(CO)cc(-c3ccnc(-n4nc(-c5cccnc5)c5ccccc5c4=O)c3)c2cc1OC.Cl`, the Ki at Phosphodiesterase 4 [2] is listed as 3 nM.
